According to ChEMBL document CHEMBL3600306, “Sulfonamide bearing pyrazolylpyrazolines as potent inhibitors of carbonic anhydrase isoforms I, II, IX and XII” (Bioorg Med Chem Lett, 2015):

Target: Carbonic anhydrase 9 (Homo sapiens, UniProt Q16790)
Assay: Inhibition of human carbonic anhydrase-9 incubated for 10 mins prior to testing by stopped-flow CO2 hydrase assay

Row | Ki | SMILES
1 | 71.6 nM | Cc1nn(-c2ccc(S(N)(=O)=O)cc2)c(Cl)c1C1CC(c2ccccc2)=NN1c1ccc(S(N)(=O)=O)cc1 (configuration not stated)
2 | 70.7 nM | Cc1ccc(C2=NN(c3ccc(S(N)(=O)=O)cc3)C(c3c(C)nn(-c4ccc(S(N)(=O)=O)cc4)c3Cl)C2)cc1 (configuration not stated)
3 | 52.4 nM | COc1ccc(C2=NN(c3ccc(S(N)(=O)=O)cc3)C(c3c(C)nn(-c4ccc(S(N)(=O)=O)cc4)c3Cl)C2)cc1 (configuration not stated)
4 | 44.7 nM | Cc1nn(-c2ccc(S(N)(=O)=O)cc2)c(Cl)c1C1CC(c2ccc(F)cc2)=NN1c1ccc(S(N)(=O)=O)cc1 (configuration not stated)
5 | 32.9 nM | Cc1nn(-c2ccc(S(N)(=O)=O)cc2)c(Cl)c1C1CC(c2ccc(Cl)cc2)=NN1c1ccc(S(N)(=O)=O)cc1 (configuration not stated)
6 | 44.4 nM | Cc1nn(-c2ccc(S(N)(=O)=O)cc2)c(Cl)c1C1CC(c2ccc(Br)cc2)=NN1c1ccc(S(N)(=O)=O)cc1 (configuration not stated)
7 | 63.1 nM | CC(=O)N1N=C(c2ccccc2)CC1c1c(C)nn(-c2ccc(S(N)(=O)=O)cc2)c1Cl (configuration not stated)
8 | 67.1 nM | CC(=O)N1N=C(c2ccc(C)cc2)CC1c1c(C)nn(-c2ccc(S(N)(=O)=O)cc2)c1Cl (configuration not stated)
9 | 56.9 nM | COc1ccc(C2=NN(C(C)=O)C(c3c(C)nn(-c4ccc(S(N)(=O)=O)cc4)c3Cl)C2)cc1 (configuration not stated)
10 | 6.9 nM | CC(=O)N1N=C(c2ccc(F)cc2)CC1c1c(C)nn(-c2ccc(S(N)(=O)=O)cc2)c1Cl (configuration not stated)
11 | 30.8 nM | CC(=O)N1N=C(c2ccc(Cl)cc2)CC1c1c(C)nn(-c2ccc(S(N)(=O)=O)cc2)c1Cl (configuration not stated)
12 | 67.2 nM | CC(=O)N1N=C(c2ccc(Br)cc2)CC1c1c(C)nn(-c2ccc(S(N)(=O)=O)cc2)c1Cl (configuration not stated)
